One test concerns the target Syntenin-1/Syndecan-2 (Homo sapiens, UniProt O00560). Description: Inhibition of full length N-terminal GST-tagged human syntenin-1 expressed in Escherichia coli ER2566/syndecan2 (unknown origin) interaction incubated for 16 hrs by HTRF assay. For orientation: TR-FRET usually uses a lanthanide donor and a delayed reading to cut background.
In test [1] the target is T1, Syntenin-1/Syndecan-2 (Homo sapiens) (UniProt O00560+P34741). Description: Inhibition of full length N-terminal GST-tagged human syntenin-1 expressed in Escherichia coli ER2566/syndecan2 (unknown origin) interaction at 200 uM incubated for 16 hrs by HTRF assay relative to control.
For test [2], the target named is GRASP55-JAMB (Homo sapiens) (UniProt Q9H8Y8+P57087). Description: Inhibition of N-terminal GST-tagged GRASP55 (unknown origin) expressed in Escherichia coli BL21 (DE3) cells/JAM-B (unknown origin) complex incubated for 16 hrs by HTRF assay.
Test [3] concerns the target ERBIN-P0071 (Homo sapiens) (UniProt Q96RT1+Q99569). Description: Inhibition of N-terminal GST-tagged Erbin (unknown origin) expressed in Escherichia coli BL21 (DE3) cells/P0071 (unknown origin) complex incubated for 16 hrs by HTRF assay.
For a further test, the target named is T2, Syntenin-1 (Homo sapiens, UniProt O00560).
T2 sequence (O00560 whole entry): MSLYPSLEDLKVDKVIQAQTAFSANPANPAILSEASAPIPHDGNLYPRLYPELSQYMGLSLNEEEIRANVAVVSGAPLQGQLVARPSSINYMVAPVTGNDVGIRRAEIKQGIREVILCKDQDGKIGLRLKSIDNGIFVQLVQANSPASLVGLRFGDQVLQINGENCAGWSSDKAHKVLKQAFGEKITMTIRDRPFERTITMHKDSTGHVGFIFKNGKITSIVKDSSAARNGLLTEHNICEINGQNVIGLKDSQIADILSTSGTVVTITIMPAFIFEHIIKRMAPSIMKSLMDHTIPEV
Description: Binding affinity to full length N-terminal GST-tagged human syntenin-1 expressed in Escherichia coli ER2566 assessed as dissociation constant by ITC analysis. (ITC needs no label: the signal is the heat of the interaction.)

Test [4] concerns MDA-MB-231. Description: Cytotoxicity against wild-type human MDA-MB-231 cells assessed as reduction in cell viability upto 100 uM measured after 48 hrs by Annexin V-FITC staining based flow cytometric analysis. The format is functional. For orientation: In flow cytometry, cells or beads pass a laser one at a time.
The test system of test [5] is MDA-MB-231. Description: Cytotoxicity against human MDA-MB-231 cells with syntenin CRISPR/Cas9 knockout assessed as reduction in cell viability upto 100 uM measured after 48 hrs by Annexin V-FITC staining based flow cytometric analysis. The format is functional.
Test [6] deals with MDA-MB-231. Description: Inhibition of cell migration in wild-type human MDA-MB-231 cells assessed as decrease in migration speed at 100 uM incubated for 24 hrs by 2D phase contrast video microscopic analysis. Format: functional, cell-based.
In test [7] the test system is MDA-MB-231. Description: Inhibition of cell migration in wild-type human MDA-MB-231 cells assessed as decrease in euclidean distance at 100 uM incubated for 24 hrs by 2D phase contrast video microscopic analysis. The format is functional, cell-based.
Test [8] relates to MDA-MB-231. Description: Inhibition of cell migration in human MDA-MB-231 cells with syntenin CRISPR/Cas9 knockout assessed as decrease in migration speed at 100 uM incubated for 24 hrs by 2D phase contrast video microscopic analysis. The format is functional, cell-based.
For test [9], the system named is MDA-MB-231. Description: Inhibition of cell migration in human MDA-MB-231 cells with syntenin CRISPR/Cas9 knockout assessed as decrease in euclidean distance at 100 uM incubated for 24 hrs by 2D phase contrast video microscopic analysis. The format is functional, cell-based.
The subject of test [10] is MDA-MB-231. Description: Inhibition of cell migration in wild-type human MDA-MB-231 cells assessed as decrease in migration speed at 1 to 10 uM incubated for 24 hrs by 2D phase contrast video microscopic analysis. The format is functional, cell-based. Particulars: dose 1-10 µM.
Test [11] has as its system MDA-MB-231. Description: Inhibition of cell migration in wild-type human MDA-MB-231 cells assessed as decrease in euclidean distance at 1 to 10 uM incubated for 24 hrs by 2D phase contrast video microscopic analysis. Format: functional, cell-based. Conditions: dose 1-10 µM.
Test [12] deals with T1, Syntenin-1/Syndecan-2 (Homo sapiens). Description: Inhibition of full length N-terminal GST-tagged human syntenin-1 expressed in Escherichia coli ER2566/syndecan2 (unknown origin) interaction at 200 uM incubated for 16 hrs in the presence of NP-40 by HTRF assay.

These results are taken from ChEMBL document CHEMBL5380821, “Discovery of a PDZ Domain Inhibitor Targeting the Syndecan/Syntenin Protein-Protein Interaction: A Semi-Automated "Hit Identification-to-Optimization" Approach” (J Med Chem, 2023).

Calls of active or inactive are those of the source. No cut-off for these calls is given here.

Syntenin-1/Syndecan-2, sequence (P34741 whole entry, one chain of several, further chain): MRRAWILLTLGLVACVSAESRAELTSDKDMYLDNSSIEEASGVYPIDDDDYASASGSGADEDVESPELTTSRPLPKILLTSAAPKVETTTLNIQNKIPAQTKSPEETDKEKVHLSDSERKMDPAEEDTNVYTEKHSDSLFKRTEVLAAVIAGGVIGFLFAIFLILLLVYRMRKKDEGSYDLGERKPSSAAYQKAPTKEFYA
GRASP55-JAMB (Homo sapiens), sequence (P57087 whole entry, looked up, other chains not shown): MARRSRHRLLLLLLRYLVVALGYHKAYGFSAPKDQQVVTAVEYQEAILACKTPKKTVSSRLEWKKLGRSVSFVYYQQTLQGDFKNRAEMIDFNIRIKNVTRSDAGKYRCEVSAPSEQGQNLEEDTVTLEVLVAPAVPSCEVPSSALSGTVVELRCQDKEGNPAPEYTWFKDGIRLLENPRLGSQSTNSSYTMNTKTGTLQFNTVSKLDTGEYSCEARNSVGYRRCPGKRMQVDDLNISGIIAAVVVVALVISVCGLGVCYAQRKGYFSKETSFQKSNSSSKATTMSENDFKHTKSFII
ERBIN-P0071 (Homo sapiens), sequence (Q96RT1 whole entry, looked up): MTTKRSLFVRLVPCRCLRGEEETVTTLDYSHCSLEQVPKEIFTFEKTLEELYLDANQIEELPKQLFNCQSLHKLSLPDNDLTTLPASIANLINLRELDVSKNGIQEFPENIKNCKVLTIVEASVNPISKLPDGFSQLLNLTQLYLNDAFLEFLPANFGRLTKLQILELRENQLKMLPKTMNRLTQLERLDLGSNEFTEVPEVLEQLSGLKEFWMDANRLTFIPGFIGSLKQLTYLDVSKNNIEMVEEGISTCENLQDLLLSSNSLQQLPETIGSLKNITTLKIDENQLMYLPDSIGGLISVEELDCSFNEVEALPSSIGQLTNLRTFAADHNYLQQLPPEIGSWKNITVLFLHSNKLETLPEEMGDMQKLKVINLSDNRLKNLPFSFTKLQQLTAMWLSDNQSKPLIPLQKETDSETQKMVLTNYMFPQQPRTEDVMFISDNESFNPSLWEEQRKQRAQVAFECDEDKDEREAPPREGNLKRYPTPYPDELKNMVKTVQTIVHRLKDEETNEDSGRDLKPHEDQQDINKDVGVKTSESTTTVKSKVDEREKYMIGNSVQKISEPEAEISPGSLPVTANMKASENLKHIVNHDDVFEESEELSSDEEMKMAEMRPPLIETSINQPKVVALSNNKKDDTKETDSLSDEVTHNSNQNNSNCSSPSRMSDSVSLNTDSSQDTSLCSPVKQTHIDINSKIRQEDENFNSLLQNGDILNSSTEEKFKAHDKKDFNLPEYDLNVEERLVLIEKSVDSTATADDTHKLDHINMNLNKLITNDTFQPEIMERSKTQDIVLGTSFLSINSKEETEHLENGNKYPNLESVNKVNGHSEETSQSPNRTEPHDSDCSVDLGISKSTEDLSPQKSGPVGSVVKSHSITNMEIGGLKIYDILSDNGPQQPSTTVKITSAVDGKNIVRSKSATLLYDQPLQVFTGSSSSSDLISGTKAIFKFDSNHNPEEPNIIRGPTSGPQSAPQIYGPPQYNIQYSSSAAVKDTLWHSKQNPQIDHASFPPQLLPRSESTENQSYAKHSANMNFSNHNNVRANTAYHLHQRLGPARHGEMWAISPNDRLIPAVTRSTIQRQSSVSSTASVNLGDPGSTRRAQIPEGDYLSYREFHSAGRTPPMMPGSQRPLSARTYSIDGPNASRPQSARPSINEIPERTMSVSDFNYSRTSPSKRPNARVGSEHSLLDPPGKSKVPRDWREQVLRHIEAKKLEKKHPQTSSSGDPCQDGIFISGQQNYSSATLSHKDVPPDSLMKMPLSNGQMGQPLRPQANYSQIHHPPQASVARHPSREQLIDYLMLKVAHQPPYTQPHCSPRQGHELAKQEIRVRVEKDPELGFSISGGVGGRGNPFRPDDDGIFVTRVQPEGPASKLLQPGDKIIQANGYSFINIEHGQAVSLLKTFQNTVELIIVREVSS
ERBIN-P0071 (Homo sapiens), sequence (Q99569 whole entry, looked up): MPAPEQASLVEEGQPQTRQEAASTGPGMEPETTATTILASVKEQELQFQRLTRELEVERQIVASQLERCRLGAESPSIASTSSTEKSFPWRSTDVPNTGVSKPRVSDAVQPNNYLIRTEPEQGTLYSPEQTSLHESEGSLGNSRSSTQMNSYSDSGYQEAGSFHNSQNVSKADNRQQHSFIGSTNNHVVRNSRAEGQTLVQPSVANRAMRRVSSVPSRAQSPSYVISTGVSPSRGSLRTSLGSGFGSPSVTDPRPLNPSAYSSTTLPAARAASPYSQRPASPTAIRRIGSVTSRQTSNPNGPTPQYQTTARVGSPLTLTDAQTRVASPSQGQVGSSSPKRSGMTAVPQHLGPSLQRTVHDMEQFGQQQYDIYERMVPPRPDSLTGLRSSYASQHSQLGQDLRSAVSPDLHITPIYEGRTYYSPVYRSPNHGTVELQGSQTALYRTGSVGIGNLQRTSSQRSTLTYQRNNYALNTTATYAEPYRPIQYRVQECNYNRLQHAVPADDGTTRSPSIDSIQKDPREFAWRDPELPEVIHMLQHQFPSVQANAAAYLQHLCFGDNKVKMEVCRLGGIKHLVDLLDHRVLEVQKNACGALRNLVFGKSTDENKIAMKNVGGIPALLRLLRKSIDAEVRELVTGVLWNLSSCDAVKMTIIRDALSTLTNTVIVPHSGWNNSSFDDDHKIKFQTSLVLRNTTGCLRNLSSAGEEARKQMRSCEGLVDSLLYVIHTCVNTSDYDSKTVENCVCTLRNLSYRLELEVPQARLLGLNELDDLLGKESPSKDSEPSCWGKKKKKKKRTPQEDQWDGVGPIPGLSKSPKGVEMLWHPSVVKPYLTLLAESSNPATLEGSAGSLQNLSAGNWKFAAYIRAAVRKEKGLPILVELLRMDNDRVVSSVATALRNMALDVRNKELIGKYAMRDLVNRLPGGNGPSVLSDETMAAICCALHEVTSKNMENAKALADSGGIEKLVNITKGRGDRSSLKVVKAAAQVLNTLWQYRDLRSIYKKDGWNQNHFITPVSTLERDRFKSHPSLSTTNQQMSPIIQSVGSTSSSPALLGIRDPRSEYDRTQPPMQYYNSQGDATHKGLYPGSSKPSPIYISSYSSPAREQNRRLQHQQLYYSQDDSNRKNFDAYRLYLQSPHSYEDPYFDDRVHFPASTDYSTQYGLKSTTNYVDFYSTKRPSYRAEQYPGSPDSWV

`CC(C)[C@H](NC(=O)[C@H](C(C)C)N1Cc2ccccc2C1=O)C(=O)O`: the IC50 – broadly, the concentration needed to halve the response being measured – against Syntenin-1/Syndecan-2 was over 500 µM.
In the case of `CC(C)C[C@@H](C(=O)N[C@@H](C)C(=O)O)N1Cc2ccccc2C1=O`, on Syntenin-1/Syndecan-2, the midpoint of inhibition, the IC50, lay at 213 µM.
Same read-out and setting: the same measure for `C[C@H](NC(=O)[C@H](Cc1ccc(-c2ccccc2F)cc1)N1Cc2ccccc2C1=O)C(=O)O`: 9.9 µM.
At Syntenin-1/Syndecan-2, `C[C@H](NC(=O)[C@H](Cc1ccc(Br)cc1)N1Cc2ccccc2C1=O)C(=O)O` yielded an IC50 of 35 µM.
At Syntenin-1/Syndecan-2, `C[C@H](NC(=O)C(CSCc1ccccc1)N1Cc2ccccc2C1=O)C(=O)O` (single isomer, unassigned) showed an IC50 of 63 µM.
Take `COc1cc2cc(C(=O)N(C)CCOc3cccc(Cl)c3)[nH]c2c(OC)c1OC`: in test [1], the inhibition – broadly, the percentage by which the read-out fell short of the control – is over 60%.
With `CC(C)[C@@H](C(=O)N[C@@H](Cc1ccccc1)C(=O)O)N1Cc2ccccc2C1=O`, on Syntenin-1/Syndecan-2, the 50% inhibitory concentration (IC50) was over 500 µM.
As for `C[C@H](NC(=O)[C@H](Cc1ccccc1)NC(=O)c1cc2cc(Cl)ccc2n1C)C(=O)O`, the inhibition in test [1] was over 60%.
Turning to `C[C@H](NC(=O)[C@H](Cc1ccc(-c2ccc3c(c2)C(=O)N(C)C3)cc1)N1Cc2ccccc2C1=O)C(=O)O`, inhibition against Syntenin-1/Syndecan-2 was half-maximal at 6.3 µM (IC50).
On the same count and under the same terms, the same measure for `Cc1ccc(C[C@@H](C(=O)N[C@@H](C)C(=O)O)N2Cc3ccccc3C2=O)cc1`: over 200 µM.
With `CC(C)[C@@H](C(=O)N[C@@H](C)C(=O)O)N1Cc2cc(Br)ccc2C1=O`, at Syntenin-1/Syndecan-2, half-maximal inhibition (IC50) required 20 µM. This counts as double-digit micromolar.
On the same count and under the same terms, the value for `O=C(O)[C@H](Cc1ccccc1)NC(=O)[C@H](Cc1ccccc1)N1Cc2ccccc2C1=O` was over 500 µM; that for `C[C@H](NC(=O)[C@H](Cc1c[nH]c2ccccc12)N1Cc2ccccc2C1=O)C(=O)O` was 33 µM; that for `CC(C)[C@@H](C(=O)N[C@@H](C)C(=O)O)N1Cc2ccc(Br)cc2C1=O` was over 200 µM.
The same measure, in the same setting: the value for `CC(C)C[C@H](NC(=O)[C@H](C(C)C)N1Cc2ccccc2C1=O)C(=O)O` was over 500 µM.
On to `CC(=O)c1ccc(F)c(-c2ccc(C[C@@H](C(=O)N[C@@H](C)C(=O)O)N3Cc4cc(Br)ccc4C3=O)cc2)c1`, for which the IC50 against Syntenin-1/Syndecan-2 is 0.4 µM. Moreover, the inhibition result (in [2]; in test [3]; in the test with MDA-MB-231 [8]; in the test on MDA-MB-231 [9]) was “inactive” throughout. Further, at Syntenin-1, the Kd (in general, the free concentration of one partner at which half of the binding sites on the other are occupied at equilibrium, for simple one-to-one binding) was determined as 1.8 µM. For the same compound, the outcome in the test with MDA-MB-231 [4] and in the test on MDA-MB-231 [5] was inactive. In addition, the inhibition entry in the test with MDA-MB-231 [6], with MDA-MB-231 [7], in the test with MDA-MB-231 [10] and in the test on MDA-MB-231 [11] was “Active” throughout.
For `CCOC(=O)C(Cc1c[nH]c2ccccc12)NC(=O)C(Cc1ccccc1)N1C(=O)c2ccccc2C1=O` (centres undefined), the inhibition in test [1] was over 60%.
For the compound `CC(C)[C@@H](C(=O)N[C@@H](C)C(=O)O)N1Cc2cc(Cl)ccc2C1=O`, on Syntenin-1/Syndecan-2, the IC50 is 14 µM. In other words, the double-digit micromolar range.
Still for that read-out and setting: the same measure for `C[C@H](NC(=O)[C@H](Cc1ccc(-c2cc(CO)ccc2F)cc1)N1Cc2ccccc2C1=O)C(=O)O`: 5.3 µM; for `CC(C)C[C@H](NC(=O)[C@H](Cc1ccccc1)N1Cc2ccccc2C1=O)C(=O)O`: over 500 µM; for `C[C@H](NC(=O)[C@H](Cc1ccccc1)N1Cc2ccccc2C1=O)C(=O)O`: 67 µM.
The same measure, in the same setting: the value for `C[C@H](NC(=O)[C@H](Cc1ccc2ccccc2c1)N1Cc2cc(Br)ccc2C1=O)C(=O)O` was 5.2 µM; that for `C[C@H](NC(=O)[C@H](Cc1ccc2ccccc2c1)N1Cc2ccccc2C1=O)C(=O)O` was 13 µM.
As to `C[C@H](NC(=O)[C@H](Cc1ccc(-c2ccc3occc(=O)c3c2)cc1)N1Cc2ccccc2C1=O)C(=O)O`, at Syntenin-1/Syndecan-2, the IC50 came out at 4 µM.
Consider `C[C@H](NC(=O)[C@H](Cc1ccc(O)cc1)N1Cc2ccccc2C1=O)C(=O)O`, for which the half-maximal inhibitory concentration (IC50) at Syntenin-1/Syndecan-2 came to 44 µM.
Consider `CC(C)[C@@H](C(=O)N[C@@H](C)C(=O)O)N1Cc2c(Cl)cccc2C1=O`, for which, at Syntenin-1/Syndecan-2, the IC50 was over 200 µM.
The same measure, in the same setting: the value for `CC(C)C[C@@H](C(=O)N[C@@H](Cc1ccccc1)C(=O)O)N1Cc2ccccc2C1=O` was over 500 µM.
On the same count and under the same terms, the same measure for `C[C@H](NC(=O)[C@H](Cc1ccc(-c2cc(CO)ccc2F)cc1)N1Cc2cc(Br)ccc2C1=O)C(=O)O`: 1.5 µM; for `CC[C@H](C)[C@H](NC(=O)[C@H](Cc1ccccc1)N1Cc2ccccc2C1=O)C(=O)O`: over 500 µM.
Take `CC(C)[C@@H](C(=O)N[C@@H](C)C(=O)O)N1Cc2ccccc2C1=O`: half-maximal inhibition against Syntenin-1/Syndecan-2 (IC50) was put at 76 µM. Besides, the inhibition entry (in test [2]; in [3]; in the test on MDA-MB-231 [8]; in the test on MDA-MB-231 [9]) was “inactive” in each case. The outcome with MDA-MB-231 [4] and with MDA-MB-231 [5] was inactive. Also, the inhibition entry (with MDA-MB-231 [6]; with MDA-MB-231 [7]; in test [12]) was “Active” each time. The compound further displayed an inhibition in test [1] of over 60%.
`COc1ccc(F)c(-c2ccc(C[C@@H](C(=O)N[C@@H](C)C(=O)O)N3Cc4ccccc4C3=O)cc2)c1` gave an IC50 against Syntenin-1/Syndecan-2 of 10 µM.
The same measure, in the same setting: the value for `CC(=O)Nc1ccc(-c2ccc(C[C@@H](C(=O)N[C@@H](C)C(=O)O)N3Cc4ccccc4C3=O)cc2)cc1` was 7.7 µM; that for `CC(=O)c1ccc(F)c(-c2ccc(C[C@@H](C(=O)N[C@@H](C)C(=O)O)N3Cc4ccccc4C3=O)cc2)c1` was 4.2 µM; that for `COc1ccc(C[C@@H](C(=O)N[C@@H](C)C(=O)O)N2Cc3ccccc3C2=O)cc1` was 128 µM.
`CCOc1nc2ccccc2nc1N1CCCC(C(=O)N2CCc3ccccc3C2)C1` (centres undefined) yielded an inhibition in test [1] of over 60%.
In the case of `CC(=O)Nc1ccc(-c2ccc(C[C@@H](C(=O)N[C@@H](C)C(=O)O)N3Cc4cc(Br)ccc4C3=O)cc2)cc1`, on Syntenin-1/Syndecan-2, the IC50 stood at 0.82 µM.
For `CCOc1ccc2[nH]c(=O)c(CN(C3CCCCC3)C(CC)c3nnnn3C(C)(C)C)cc2c1` (centres undefined), the inhibition in test [1] is over 60%.
On the same count and under the same terms, the value for `COc1ccccc1NC(=O)N1CCCC(c2nc(O)c3nnn(Cc4ccc(C)cc4)c3n2)C1` (centres undefined) was over 60%.
`CC[C@H](C)[C@H](NC(=O)[C@H](C(C)C)N1Cc2ccccc2C1=O)C(=O)O` displayed a half-maximal inhibitory concentration (IC50) at Syntenin-1/Syndecan-2 of over 500 µM.
For the compound `CC(Oc1ccc(-c2cc(N)nc3[nH]ccc23)cc1Cl)C(=O)O` (centres undefined), the inhibition in [1] is over 60%.
Take `C[C@H](NC(=O)[C@H](Cc1ccc(C#N)cc1)N1Cc2ccccc2C1=O)C(=O)O`: the IC50 against Syntenin-1/Syndecan-2 stood at 180 µM.
Turning to `CC(C)[C@H](NC(=O)[C@H](Cc1ccccc1)N1Cc2ccccc2C1=O)C(=O)O`, the 50% inhibitory concentration (IC50) against Syntenin-1/Syndecan-2 is over 500 µM. Moreover, the inhibition entry with MDA-MB-231 [6] and in the test on MDA-MB-231 [7] was “Active” in each case.
Take `CC(C)C[C@H](NC(=O)[C@H](CC(C)C)N1Cc2ccccc2C1=O)C(=O)O`: the IC50 at Syntenin-1/Syndecan-2 is over 500 µM.
For `CC[C@H](C)[C@H](NC(=O)[C@H](CC(C)C)N1Cc2ccccc2C1=O)C(=O)O`, the IC50 against Syntenin-1/Syndecan-2 was over 500 µM.
On the same count and under the same terms, the value for `CC(C)C[C@@H](C(=O)N[C@H](C(=O)O)C(C)C)N1Cc2ccccc2C1=O` was over 500 µM; that for `C[C@H](NC(=O)[C@H](Cc1ccc(Cl)cc1)N1Cc2ccccc2C1=O)C(=O)O` was 78 µM.
